Test results reported in patent US20230413823A1, “HYPERLOADED YEAST CELL WALL PARTICLE AND USES THEREOF” (priority 2022, published 2023).
Values after ≈ are worked out from the molar mass of the structure shown. Where two headings read alike, the source gives them in different places.

How the values were obtained:
[1] = Payload encapsulation (loading) efficiency in YPs by HPLC; assay type: physicochemical
Description: Samples of YP-GET (10 μL, 10 mg YP/mL) were stained with Nile red (2 μL, 0.1 mg/mL) and fluorescein labeled concanavalin-A (FITC ConA, 2 μL, 0.1 mg/mL) to qualitatively assess loading by the fluorescence microscopy of the encapsulated fluorescent terpene-Nile red complex in the FITC ConA labeled yeast particle. Nile red was imaged using a rhodamine (red) filter (maxi-mum excitation/emission wavelengths at 550/570 nm) and FITC-ConA was imaged with a green filter at 490/520 nm. Microscopy images were collected with an Olympus BX60 upright compound fluorescent microscope. YP GET samples (100 mg) were centrifuged to collect excess liquid (free terpene and water) and the pellet fraction was resuspended in 10 mL of 90% methanol-10% water to extract encapsulated terpenes. Terpenes were quantified by HPLC operated with 32 KARAT™ software version 7.0 (Beckman Coulter, Inc, Brea, CA, USA), using a Waters […]® C18 column (3.5 μm, 4.6×150 mm) with acetonitrile:water 50:50 as mobile phase, flow rate at 1 mL/min, injection volume of 10 μL, and terpene detection at 254 nm. […] The quantification of terpenes was done by measuring the peak area and interpolating the concentration using a calibration curve obtained with terpene standards.
Terpenes were mixed with water and YPs from two different manufacturers and incubated at room temperature for 48 hours and encapsulation efficiency of terpenes in YPs was measured as described above after incubation at room temperature for 2 days.
(§1) Dry YPs from two different manufacturers were mixed with water (0.5mL water/g YP) for 30 minutes to obtain a uniform hydrated YP suspension. Limonene was added to the YP sample and incubated at 40° C. for one week to allow for complete limonene loading. Loading efficiency was quantitatively measured by the basic HPLC procedure described above using assay details listed in Table 10 and qualitatively assessed by fluorescence microscopy as described before. Particle diameter was measured as described before.
as §1, with “(0.5 to 2.5 mL” for “(0.5mL”, “Limonene was added to the YP sample and incubated at 40° C. for one week to allow for complete limonene loading.” left out, “12” for “10”, “above.” for “before.”
as §1, with “(2.5 to 5 mL” for “(0.5mL”, “Triallate” for “Limonene”, “3 to 7 days” for “one week”, “complete” for “complete limonene”, “14” for “10”
Dry GLPs/YPs were mixed with water (0.5 to 4.5 mL water g GLP/YP) for 30 minutes to obtain a uniform hydrated YP suspension. THC was added to the GLP/YP sample and incubated at 23° C. for 48 hours to allow for complete THC loading. Loading efficiency was quantitatively measured by the basic HPLC procedure described above using assay details listed in Table 16 and qualitatively assessed by fluorescence microscopy as described above. Particle diameter was measured as described above.
Two different kinds of dry YPs were mixed with water (0.5 to 4.5 mL water/g YP) for 30 minutes to obtain a uniform hydrated YP suspension. λCy was added to the YP sample and incubated at 55° C. for one week to allow for complete λCy loading. Loading efficiency was quantitatively measured by the basic HPLC procedure described above using assay details listed in Table 18 and qualitatively assessed by fluorescence microscopy as described before. Particle diameter was measured as described before.
PTP is highly soluble in acetone and dichloromethane. […]

[2] = cited from earlier work; for water/octanol partition coefficient (log P): chemical and physical properties tables
[3] = Table 21, cited from earlier work
[4] = cited from earlier work
[5] = tested on: Candida albicans SC5134; test: Antimicrobial microplate assay (MIC 75%); assay type: cell-based
Description: The antimicrobial activity of YP-GET was evaluated using a modified published microplate assay procedure (Sultanbawa, Y.; Cusack, A.; Currie, M.; Davis, C. An Innovative Microplate Assay to Facilitate the Detection of Antimicrobial 538Activity in Plant Extracts. J. Rapid Meth. Aut. Mic. 2009, 17 (4), 519-534. haps://doi.org/10.111/j.1745-4581.2009.00187.x). Samples of YP-GET were suspended in 100 μL of growth medium (LB 395was used in antibacterial assays and YPD in antifungal assays) and added to the first row 396 (Row A) of a 96-well plate (all wells in the 96-well plate contain additional 100 μL medium). Serial dilutions (1:1) were performed by transferring 100 μL from Row A to Row B, etc., and finally removing 100 μL from Row H. Diluted Escherichia coli Top10 (Invitrogen, Carlsbad CA), Staphylococcus aureus ATCC 19636 or Candida albicans SC5134 cells (100 μL, […]) were added to all wells of the plate. Initial (t=0) and final (t=16 h, 37° C.) absorbance readings were taken at 650 nm.

[6] = Payload release from YPs upon dilution in water (HPLC of supernatant); assay type: physicochemical
Description: Sustained payload release from YPs occurs by payload diffusion out of the particles and is a function of the payload's solubility in water. […] Samples were incubated at room temperature. Amount of triallate released from the particles into the supernatant was quantified by HPLC as described before.
λCy-YP samples loaded at a w/w λCy:YP ratio of 1:1 were diluted in water ±surfactant (1% w/v IGEPAL) at target λCy concentrations of 0.001, 0.01, 0.1 and 1 mg/mL. Samples were incubated at room temperature for 3 hours. Supernatant was collected to measure amount of λCy released from the particles. The amount of λCy was quantified by HPLC as described above.
PTP-YP samples prepared without leave in solvent or with leave-in solvent GET424 or DMDA. Samples carrying PTP:YP weight ratio 1:1, PTP:GET:YP ratio of 1:1:1 or PTP:DMDA:YP ratio of 1:1:1 were diluted in water at a target PTP concentration of 0.001, 0.01, 0.1 and 1 mg/mL. Samples were incubated at room temperature. Supernatant was collected to measure amount of payload released from the particles.

[7] = tested on: S. cerevisiae; conditions: cited from earlier work
[8] = tested on: C. albicans; conditions: cited from earlier work
[9] = tested on: H. pylori; conditions: concentration of 2 mg/L; cited from earlier work
[10] = Solubility in organic loading and leave-in solvents
[11] = physchem; conditions: organic solvent or mixture
[12] = chemical and physical properties tables

OC(Cc1ccccc1Cl)(Cn1nc[nH]c1=S)C1(Cl)CC1 (stereo not drawn) [prothioconazole]
encapsulation efficiency ([1]; PRO:YP ratios up to 3:1, three loading cycles, acetone): more than 83%
water/octanol partition coefficient (log P) [2]: 4.05
Solubility DMSO ([3]; DMSO): 126000 µg/mL (≈ 366 mM)
Solubility Acetone ([3]; acetone): 444000 µg/mL (≈ 1290 mM)
Solubility Ethyl acetate ([3]; ethyl acetate): 220000 µg/mL (≈ 639 mM)
Solubility Water ([4]; Table 21): 22.5 µg/mL (≈ 0.0654 mM)

OC(Cn1cncn1)(Cn1cncn1)c1ccc(F)cc1F [Fluconazole]
fold lower concentration than YP GET to reach MIC 75% [5]: 10 fold

CC1(C)C(/C=C(\Cl)C(F)(F)F)[C@H]1C(=O)O[C@H](C#N)c1cccc(Oc2ccccc2)c1 (stereo partly drawn) [Lambda cyhalotrin]
payload encapsulation ([1]; λCy:YP ratios up to 5:1, no solvent): 77-90%
Log P ([2]; Table 1): 7.0
water/octanol partition coefficient (log P) [2]: 7.0
λCy release from YPs ([6]; dilution to 0.001 mg λCy/mL, λCy:YP 1:1, 3 hours room temperature): over 80%
Maximum solubility in water ([4]; Table 1): 0.005 µg/mL
Solubility in Water [4, 12]: 2.8 µg/mL (≈ 0.00622 mM)

CC(C)=CCC/C(C)=C/CO [Geraniol]
Log P ([2]; water/octanol, Table 2): 3.56
growth of S. cerevisiae strains [7]: inhibit the growth
growth of C. albicans strains [8]: inhibit the growth
in vitro growth of H. pylori [9]: inhibited
Maximum solubility in water ([4]; Table 1): 686 µg/mL
Solubility in Water ([4]; Table 2): 686 µg/mL (≈ 4.45 mM)
Maximum solubility in water ([4]; terpenes in the GET composition): 686 µg/mL

CCCCCc1cc(O)c2c(c1)OC(C)(C)[C@@H]1CCC(C)=C[C@@H]21 [Tetrahydrocannabinol (THC), Tetrahydrocannabinol, reference compound]
loading efficiency ([1]; THC:YP ratio of up to 5:1): high efficiency
Log P ([2]; Table 1): 5.9
water/octanol partition coefficient (log P) [2]: 5.9
Maximum solubility in water ([4]; Table 1): 2.8 µg/mL
Solubility in Water [4, 12]: 2.8 µg/mL (≈ 0.0089 mM)

C=C(C)[C@@H]1CCC(C)=C[C@H]1c1c(O)cc(CCCCC)cc1O [CBD, cannabidiol]
encapsulation efficiency ([1]; 3:1 (CBD+OA):GLP ratio, OA leave-in solvent): high encapsulation efficiency
encapsulation efficiency ([1]; CBD:YP weight ratios up to 5:1, multiple loading cycles, GLPs): high encapsulation efficiency
solubility ([10]; DMSO, organic solvent or mixture): 200000 µg/mL (≈ 636 mM)
solubility ([10]; GET424, organic solvent or mixture): 10000 µg/mL (≈ 31.8 mM)
CBD Solubility Ethanol ([10]; ethanol): Miscible at 1:1 weight ratio*
CBD Solubility Methanol ([10]; methanol): Miscible at 1:1 weight ratio*
CBD Solubility Octanoic Acid (OA) ([10]; octanoic acid): Miscible at 0.5:1 CBD:OA ratio

CC(C)CC(C)c1sccc1NC(=O)c1cn(C)nc1C(F)(F)F (stereo not drawn) [PTP, Penthiopyrad]
PTP release from YPs ([6]; DMDA leave-in solvent, PTP:DMDA:YP 1:1:1): improved release at 0.1 and 0.01 mg PTP/mL
PTP release from YPs ([6]; GET424 leave-in solvent, PTP:GET:YP 1:1:1): improved release at 0.01 mg PTP/mL
PTP release from YPs ([6]; without a leave-in solvent, PTP:YP 1:1): released from YPs only at a concentration above maximum solubility in water
solubility [11]: 200000 µg/mL (≈ 556 mM)

Clomazone
clomazone located inside YPs ([1]; clomazone:YP w/w ratios up to 5:1, no solvent): 96-100%
Log P ([2]; Table 1): 2.5
water/octanol partition coefficient (log P) [2]: 2.5

CC(C)N(C(=O)SCC(Cl)=C(Cl)Cl)C(C)C [Triallate]
triallate located inside YPs ([1]; triallate:YP w/w ratios up to 4:1, no solvent): 94 -100%
release of triallate from the YP ([6]; dilution to 0.001 mg/mL, triallate:YP 3:1 and 4:1): ~100%

C=C(C)[C@H]1CC=C(C)CC1 [Limonene]
loading efficiency ([1]; limonene:YP ratio of 3:1, both types of YPs): high efficiency
